Experimental findings from patent US8242118B2, “Arylsulfonamide derivatives for use as CCR3 antagonists in the treatment of inflammatory and immunological disorders” (Axikin Pharmaceuticals Inc., priority 2001, dated 2012) are described below.

For the experiment, the target named is T1, Human CCR3 (Homo sapiens, UniProt P51677).
T1 construct: The cloned CCR3 cDNA was constructed with pcDNA3 vector and transfected into a IC562 cell line; expressed in transfected cells
T1 sequence (P51677 1-355): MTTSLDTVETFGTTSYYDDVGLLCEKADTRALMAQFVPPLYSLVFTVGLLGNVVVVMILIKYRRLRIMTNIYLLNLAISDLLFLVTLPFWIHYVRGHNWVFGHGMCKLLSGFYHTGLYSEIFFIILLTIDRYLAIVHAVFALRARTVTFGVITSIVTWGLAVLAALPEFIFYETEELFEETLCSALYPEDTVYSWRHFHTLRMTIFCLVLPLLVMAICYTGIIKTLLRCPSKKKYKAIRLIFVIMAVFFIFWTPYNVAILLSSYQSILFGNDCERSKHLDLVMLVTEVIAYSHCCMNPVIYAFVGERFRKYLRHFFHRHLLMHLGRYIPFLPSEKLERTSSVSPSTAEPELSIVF
Nature of the experiment: Calcium mobilization assay, eotaxin-stimulated. The format is cell-based. Conditions: human CCR3-transformed K562 cells, 10 nM eotaxin; compounds of about 40 to 90% purity; read-out: Activity grade Ca2+ (IC50 class). The method in brief:
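K562 cells transfected with human CCR3, pretreated 20–24 h with 5 mM sodium butyrate, loaded with Fluo-3AM. Compound added 10 min before stimulation with 10 nM (final) eotaxin; cytoplasmic calcium read over 60 s by FDSS, IC50 from inhibition curve.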

A word on the IC50: it is the concentration that gives 50% inhibition.

For the molecule `N#Cc1ccc(Oc2cc(Cl)cc(Cl)c2)c(S(=O)(=O)N2C[C@H]3C[C@@H]2CN3)c1` [Example 13-4], the IC50 was < 1 µM.
With `O=[N+]([O-])c1ccc(Sc2cc(Cl)cc(Cl)c2)c(S(=O)(=O)N2CCC(N3CCCC3)CC2)c1` [Example 2-22], the concentration for half-maximal inhibition (IC50) is < 1 µM.
With `COCCCN1CCN(S(=O)(=O)c2cc([N+](=O)[O-])ccc2Oc2cc(Cl)cc(Cl)c2)CC1` [Example 4-36], the IC50 was < 1 µM.
Take `Cc1cc(C)cc(Oc2cc(C)c(N)cc2S(=O)(=O)N2CCNCC2)c1.Cl.Cl` [Example 5-7]: the IC50 was > 10 µM.
Turning to `Cc1cc(C)cc(Oc2ccc(NC(=O)c3cccs3)cc2S(=O)(=O)N2CCNCC2)c1` [Example 7-9], the IC50 was > 10 µM.
The same measure for `CC(=O)Nc1ccc(Oc2cc(C)cc(C)c2)c(S(=O)(=O)N2CCNCC2)c1` [Example 7-2]: > 10 µM.
Regarding `Cc1cccc(Nc2ccc([N+](=O)[O-])cc2S(=O)(=O)N2CCNCC2)c1` [Example 3-4], the IC50 lay in the range of 1 to 10 µM.
In the case of `CC1CCCCN1CCCNS(=O)(=O)c1cc([N+](=O)[O-])ccc1Sc1cc(Cl)cc(Cl)c1` (stereo not shown) [Example 2-13], the IC50 was < 1 µM.
The same measure for `CCN1CCN(S(=O)(=O)c2cc(I)ccc2Oc2cc(C)cc(C)c2)CC1` [Example 5-5]: < 1 µM; for `Cc1cc(C)cc(Oc2ccc([N+](=O)[O-])cc2S(=O)(=O)N(C)CCN(C)C)c1` [Example 4-14]: < 1 µM.
Regarding `Cc1ccc(N2CCN(S(=O)(=O)c3cc([N+](=O)[O-])ccc3Oc3cc(C)cc(C)c3)CC2)cc1` [Example 4-8], the IC50 was > 10 µM.
In the case of `Cc1cc(C)cc(Oc2ccc(NC(=O)C(C)(C)C)cc2S(=O)(=O)N2CCNCC2)c1` [Example 7-3], the IC50 is > 10 µM.
As for `N#Cc1ccc(Oc2cc(Cl)cc(Cl)c2)c(S(=O)(=O)N2C[C@@H]3CCCN[C@@H]3C2)c1` [Example 13-5], the IC50 was < 1 µM.
In the case of `Cc1cc(C)cc(Oc2ccc(NC(=O)CC(C)C)cc2S(=O)(=O)N2CCNCC2)c1` [Example 7-4], the IC50 is > 10 µM.
In the case of `Cc1cc(C)cc(Oc2ccc([N+](=O)[O-])cc2S(=O)(=O)N2CCC(N(C)C)CC2)c1.Cl` [Example 4-24] it was < 1 µM; in that of `CCC(CC)N1CCN(S(=O)(=O)c2cc([N+](=O)[O-])ccc2Oc2cc(C)cc(C)c2)CC1` [Example 4-18], 1 to 10 µM; in that of `CCN1CCC(N(CC)S(=O)(=O)c2cc([N+](=O)[O-])ccc2Oc2cc(C)cc(C)c2)C1` (stereo not shown) [Example 4-12], < 1 µM.
Regarding `CCN1CCN(S(=O)(=O)c2cc([N+](=O)[O-])ccc2Oc2cc(C)cc(C)c2)CC1` [Example 4-5], the half-maximal inhibitory concentration (IC50) is < 1 µM.
Consider `CN1CCC(N(C)S(=O)(=O)c2cc([N+](=O)[O-])ccc2Oc2cc(Cl)cc(Cl)c2)C1` (stereo not shown) [Example 4-23], for which the 50% inhibitory concentration (IC50) was < 1 µM.
The same measure for `Cc1cc(C)cc(Oc2ccc([N+](=O)[O-])cc2S(=O)(=O)NCCN2CCOCC2)c1` [Example 4-3]: < 1 µM.
The same measure for `O=[N+]([O-])c1ccc(Oc2cc(Cl)cc(Cl)c2)c(S(=O)(=O)N2CCN(CC3CCCO3)CC2)c1` (stereo not shown) [Example 4-27]: < 1 µM; for `Cc1cc(C)cc(Oc2ccc(F)cc2S(=O)(=O)N2CCNCC2)c1` [Example 6-3]: < 1 µM; for `Cc1cc(C)cc(Oc2ccc([N+](=O)[O-])cc2S(=O)(=O)N2CCN(C(C)C)CC2)c1` [Example 4-15]: < 1 µM.
For the molecule `Cc1ccc(C(=O)Nc2ccc(Oc3cc(C)cc(C)c3)c(S(=O)(=O)N3CCNCC3)c2)cc1` [Example 7-6], the IC50 was > 10 µM.
Take `CCN(CC)C1CCN(S(=O)(=O)c2cc([N+](=O)[O-])ccc2Oc2cc(Cl)cc(Cl)c2)C1` (stereo not shown) [Example 4-21]: the IC50 was < 1 µM.
Consider `Cc1cc(C)cc(Oc2ccc(NC(=O)CCc3ccccc3)cc2S(=O)(=O)N2CCNCC2)c1` [Example 7-8], for which the IC50 was > 10 µM.
`Cc1cc(C)cc(Oc2ccc([N+](=O)[O-])cc2S(=O)(=O)N2CCN(c3ccccc3)CC2)c1` [Example 4-7]: the IC50 is > 10 µM.
Take `O=[N+]([O-])c1ccc(Oc2cc(Cl)cc(Cl)c2)c(S(=O)(=O)N2CCC[C@H]2CN2CCCC2)c1` [Example 4-22]: the IC50 is < 1 µM.
The same measure for `N#Cc1ccc(Oc2cc(Cl)cc(Cl)c2)c(S(=O)(=O)N2CCCC3CN(Cc4ccccc4)CC32)c1` (stereo not shown) [Example 13-2]: 1 to 10 µM; for `Cc1cc(C)cc(Oc2ccc([N+](=O)[O-])cc2S(=O)(=O)N2CCN(C3CCCC3)CC2)c1` [Example 4-19]: < 1 µM; for `O=[N+]([O-])c1ccc(Sc2cc(Cl)cc(Cl)c2)c(S(=O)(=O)NCCN2CCCCC2)c1` [Example 2-24]: < 1 µM.
Consider `O=[N+]([O-])c1ccc(Oc2cc(Cl)cc(Cl)c2)c(S(=O)(=O)N2CCC(N3CCCC3)C2)c1` (stereo not shown) [Example 4-38], for which the IC50 was < 1 µM.
As for `Cc1cc(C)cc(Oc2ccc([N+](=O)[O-])cc2S(=O)(=O)N2CCN(C)CC2)c1` [Example 4-4], the IC50 was < 1 µM.
As to `N[C@H]1CCN(S(=O)(=O)c2cc([N+](=O)[O-])ccc2Sc2cc(Cl)cc(Cl)c2)C1` [Example 2-12], the IC50 is < 1 µM.
On to `O=[N+]([O-])c1ccc(Sc2cc(Cl)cc(Cl)c2)c(S(=O)(=O)N2CCC(N3CCCCC3)CC2)c1` [Example 2-3], for which the IC50 is < 1 µM.
As to `Cc1cc(C)cc(Oc2ccc([N+](=O)[O-])cc2S(=O)(=O)N2CCN(C3CCCCC3)CC2)c1` [Example 4-6], the IC50 was < 1 µM.
For the molecule `Cc1cc(C)cc(Oc2ccc([N+](=O)[O-])cc2S(=O)(=O)NCCN2CCCCC2)c1` [Example 4-2], the IC50 is < 1 µM.
For the molecule `Cc1cc(C)cc(Oc2ccc(I)cc2S(=O)(=O)N2CCNCC2)c1.Cl` [Example 5-6], the IC50 is < 1 µM.
Turning to `Cl.N[C@@H]1CCN(S(=O)(=O)c2cc([N+](=O)[O-])ccc2Sc2cc(Cl)cc(Cl)c2)C1` [Example 2-11], the half-inhibitory concentration (IC50) is < 1 µM.
As to `Cc1cc(C)cc(Oc2ccc(NC(=O)c3cccc4ccccc34)cc2S(=O)(=O)N2CCNCC2)c1` [Example 7-7], the IC50 lay in the range of 1 to 10 µM.
In the case of `O=[N+]([O-])c1ccc(Oc2cc(Cl)cc(Cl)c2)c(S(=O)(=O)N2CCC(N3CCCCC3)CC2)c1` [Example 4-29] it was < 1 µM; in that of `Cc1ccccc1Nc1ccc([N+](=O)[O-])cc1S(=O)(=O)N1CCNCC1` [Example 3-3], 1 to 10 µM; in that of `O=[N+]([O-])c1ccc(Oc2cc(Cl)cc(Cl)c2)c(S(=O)(=O)N2CCN(CCC(F)(F)F)CC2)c1` [Example 4-34], < 1 µM.
Consider `O=[N+]([O-])c1ccc(Nc2ccccc2Cl)c(S(=O)(=O)N2CCNCC2)c1` [Example 3-6], for which the IC50 lay within 1 to 10 µM.
Take `CCCC(C)N1CCN(S(=O)(=O)c2cc([N+](=O)[O-])ccc2Oc2cc(C)cc(C)c2)CC1` (stereo not shown) [Example 4-17]: the IC50 was < 1 µM.
In the case of `COCCCN1CCN(S(=O)(=O)c2cc(C#N)ccc2Oc2cc(Cl)cc(Cl)c2)CC1` [Example 13-7], the IC50 was < 1 µM.
For `Cc1cc(C)cc(Oc2ccc(N)cc2S(=O)(=O)N2CCNCC2)c1.O=C(O)C(F)(F)F` [Example 5-3], the IC50 was > 10 µM.
With `Cc1cc(C)cc(Oc2ccc([N+](=O)[O-])cc2S(=O)(=O)N2CCN(CC3CCCO3)CC2)c1` (stereo not shown) [Example 4-26], the IC50 is < 1 µM.
With `Cc1cc(C)cc(Oc2ccc(S(=O)(=O)N(C)C)cc2S(=O)(=O)N2CCNCC2)c1.Cl` [Example 10-2], the IC50 is < 1 µM.
Take `Cc1cc(C)cc(Oc2ccc([N+](=O)[O-])cc2S(=O)(=O)N2CCN(CCC(F)(F)F)CC2)c1` [Example 4-33]: the IC50 is < 1 µM.
On to `Cc1cc(C)cc(Oc2ccc(NC(=O)c3ccccc3)cc2S(=O)(=O)N2CCNCC2)c1` [Example 7-5], for which the IC50 was > 10 µM.
In the case of `CN(C)CCN(C)S(=O)(=O)c1cc([N+](=O)[O-])ccc1Oc1cc(Cl)cc(Cl)c1` [Example 4-20], the IC50 is < 1 µM.
In the case of `CN(C)CCN(C)S(=O)(=O)c1cc([N+](=O)[O-])ccc1Sc1cc(Cl)cc(Cl)c1` [Example 2-23], the IC50 was < 1 µM.
Regarding `Cc1ccc(Nc2ccc([N+](=O)[O-])cc2S(=O)(=O)N2CCNCC2)cc1` [Example 3-5], the IC50 was in the range of 1 to 10 µM.
The same measure for `Cc1cc(C)cc(Oc2ccc([N+](=O)[O-])cc2S(=O)(=O)N2CC[C@@H](N(C)C)C2)c1` [Example 4-13]: < 1 µM; for `CCC(C)N1CCN(S(=O)(=O)c2cc([N+](=O)[O-])ccc2Oc2cc(C)cc(C)c2)CC1` (stereo not shown) [Example 4-16]: < 1 µM.
On to `O=[N+]([O-])c1ccc(Nc2cc(Cl)cc(Cl)c2)c(S(=O)(=O)N2CCNCC2)c1` [Example 3-2], for which the IC50 was < 1 µM.
In the case of `CCN1CCN(S(=O)(=O)c2cc(Cl)ccc2Oc2cc(C)cc(C)c2)CC1` [Example 5-4] it was < 1 µM.
